# Test system: HT29 cells
# Experiment: Proliferation assay for HT29 colorectal cancer cells (CellTiter-Glo cell viability)
# Format: cell-based
# Settings: Homo sapiens, HT-29; HT29 colorectal cancer cell line, 72 hours, ATP detection
# Description: HT-29 which is a commercially available colorectal cancer cell line was treated with trypsin-EDTA, incubated, and seeded in a 96 well plate. […] The treated cells were incubated for further 72 hours and cell viability was measured by an ATP detection method (CellTiter-Glo LuminescentCell Viability Assay, Promega).
# In order to confirm the anticancer effect of the compounds according to the present invention, a proliferation assay for HT29 cells which are a colorectal cancer cell line was performed by the above method, and IC50 values as a result are listed in the following Table 4: […]
row,IC50 [µM],SMILES
1,22,COCCCN1C(=O)c2cccc3c(NC(=O)C4CCCCN4S(=O)(=O)c4ccc(Cl)s4)ccc1c23 (centres unmarked) [Compound 30]
2,19.4,COCCCN1C(=O)c2cccc3c(NC(=O)C4CCCCN4S(=O)(=O)c4ccc5c(c4)OCCO5)ccc1c23 (centres unmarked) [Compound 83]
3,30.6,COCCCN1C(=O)c2cccc3c(NC(=O)C4CCCCN4S(=O)(=O)c4cccc(C(F)(F)F)n4)ccc1c23 (centres unmarked) [Compound 82]
4,5.6,COCCCN1C(=O)c2cccc3c(NC(=O)C4CCCCN4S(=O)(=O)c4cc(Br)c(Br)s4)ccc1c23 (centres unmarked) [Compound 80]
5,20.3,COCCCN1C(=O)c2cccc3c(NC(=O)C4CCCCN4S(=O)(=O)c4ccc5c(c4)CCO5)ccc1c23 (centres unmarked) [Compound 39]
6,7.6,COCCCN1C(=O)c2cccc3c(NC(=O)C4CCCN(S(=O)(=O)c5ccc(Br)s5)C4)ccc1c23 (centres unmarked) [Compound 59]
7,34.2,N#CCCN1C(=O)c2cccc3c(NC(=O)C4CCCCN4S(=O)(=O)c4cccs4)ccc1c23 (centres unmarked) [Compound 21]
8,12,CN(CCCN1C(=O)c2cccc3c(NC(=O)C4CCCCN4S(=O)(=O)c4cccs4)ccc1c23)S(C)(=O)=O (centres unmarked) [Compound 117]
9,14,COCCCN1C(=O)c2cccc3c(NC(=O)C4CCCCN4S(=O)(=O)c4cccc5nsnc45)ccc1c23 (centres unmarked) [Compound 79]
10,45.4,COCCCN1C(=O)c2cccc3c(NC(=O)C4CCCCN4S(=O)(=O)c4scnc4C)ccc1c23 (centres unmarked) [Compound 81]
11,17.5,COCCCN1C(=O)c2cccc3c(NC(=O)C4CCCN(S(=O)(=O)c5cc6c(s5)CCCC6)C4)ccc1c23 (centres unmarked) [Compound 65]
12,25.3,CS(=O)(=O)N1CCCCC1C(=O)Nc1ccc2c3c(cccc13)C(=O)N2Cc1ccccc1 (centres unmarked) [Compound 9]
13,7.1,Cc1ccc(S(=O)(=O)N2CCCCC2C(=O)Nc2ccc3c4c(cccc24)C(=O)N3Cc2ccccc2)cc1 (centres unmarked) [Compound 5]
14,5.6,COCCCN1C(=O)c2cccc3c(NC(=O)C4CCCN(S(=O)(=O)c5cc(Br)c(Br)s5)C4)ccc1c23 (centres unmarked) [Compound 61]
15,2.2,COCCCN1C(=O)c2cccc3c(NC(=O)C4CCCCN4S(=O)(=O)c4cc([N+](=O)[O-])c(Cl)s4)ccc1c23 (centres unmarked) [Compound 38]
16,7.29,O=C(Nc1ccc2c3c(cccc13)C(=O)N2Cc1ccccc1)C1CCCCN1S(=O)(=O)c1ccc([N+](=O)[O-])cc1 (centres unmarked) [Compound 6]
17,30.7,COCCN1C(=O)c2cccc3c(NC(=O)C4CCCCN4S(=O)(=O)c4cccs4)ccc1c23 (centres unmarked) [Compound 12]
18,26.4,O=C(Nc1ccc2c3c(cccc13)C(=O)N2Cc1ccncc1)C1CCCCN1S(=O)(=O)c1cccs1 (centres unmarked) [Compound 18]
19,40.4,O=C(Nc1ccc2c3c(cccc13)C(=O)N2CCCO)C1CCCCN1S(=O)(=O)c1cccs1 (centres unmarked) [Compound 45]
20,29.2,COCCCN1C(=O)c2cccc3c(NC(=O)C4CCCN(S(=O)(=O)c5sc(NC(C)=O)nc5C)C4)ccc1c23 (centres unmarked) [Compound 47]

# Test system: YAP-TEAD
# Experiment: Luciferase assay of YAP-TEAD binding inhibition (TEAD luciferase reporter 8XGTIIC in HEK293T cells)
# Format: cell-based
# Settings: 10 μM, 24 hours, luciferase normalized with β-galactosidase
# Description: A Luciferase assay which allows an inhibition degree of YAP-TEAD, previously reported in Cancers 2018, 10(5), 140, was used to measure an in vitro binding inhibition rate of YAP-TEAD.
# HEK293T cells were purchased from American Type Culture Collection and incubated in DMEM media containing 10% FBS, L-glutamine, and penicillin/streptomycin. The HEK293T cells were seeded in a 24 well plate at a density of 1×10^5, and coated with polyethyleneamine (10 μg/mL). These cells were transfected with 8XGTIIC-luciferase (Addgene reference 34615) which is TEAD luciferase reporter plasmid and control β-galactosidase plasmid CMV-β-Gal using a lipofectamine 2000 reagent (Life Technologies, Inc.) according to the manufacturer's manual. Thereafter, the compound of the present invention was treated at a concentration of 10 μM for 24 hours, the cells were lysed using a Reporter lysis buffer (Promega, France), luciferase activity was read with a Mithras LB940 plate reader, and then normalization was performed with β-galactosidase.
row,SMILES,Inhibition(%)
1,COCCCN1C(=O)c2cccc3c(NC(=O)C4CCCCN4S(=O)(=O)c4ccc(Cl)s4)ccc1c23 (centres unmarked) [Compound 30],56
2,CS(=O)(=O)N1CCC(CCN2C(=O)c3cccc4c(NC(=O)C5CCCCN5S(=O)(=O)c5cccs5)ccc2c34)CC1 (centres unmarked) [Compound 106],99.2
3,COCCCN1C(=O)c2cccc3c(NC(=O)C4CCCCN4S(=O)(=O)c4ccc5c(c4)OCCO5)ccc1c23 (centres unmarked) [Compound 83],92
4,COCCCN1C(=O)c2cccc3c(NC(=O)C4CCCCN4S(=O)(=O)c4cc(Br)c(Br)s4)ccc1c23 (centres unmarked) [Compound 80],77
5,COCCCN1C(=O)c2cccc3c(NC(=O)C4CCCCN4S(=O)(=O)c4ccc5c(c4)CCO5)ccc1c23 (centres unmarked) [Compound 39],66
6,COCCCN1C(=O)c2cccc3c(NC(=O)C4CCCN(S(=O)(=O)c5ccc(Br)s5)C4)ccc1c23 (centres unmarked) [Compound 59],87
7,N#CCCN1C(=O)c2cccc3c(NC(=O)C4CCCCN4S(=O)(=O)c4cccs4)ccc1c23 (centres unmarked) [Compound 21],59
8,CN(CCCN1C(=O)c2cccc3c(NC(=O)C4CCCCN4S(=O)(=O)c4cccs4)ccc1c23)S(C)(=O)=O (centres unmarked) [Compound 117],85
9,O=C(Nc1ccc2c3c(cccc13)C(=O)N2Cc1ccccc1)C1CCCN1S(=O)(=O)c1cccs1 (centres unmarked) [Compound 3],63
10,COCCCN1C(=O)c2cccc3c(NC(=O)C4CCCCN4S(=O)(=O)c4cccc5nsnc45)ccc1c23 (centres unmarked) [Compound 79],71
11,O=C(Nc1ccc2c3c(cccc13)C(=O)N2CCc1ccc(Cl)cc1Cl)C1CCCCN1S(=O)(=O)c1cccs1 (centres unmarked) [Compound 26],100
12,COCCCN1C(=O)c2cccc3c(NC(=O)C4CCCCN4S(=O)(=O)c4ccc(NC(C)=O)cc4)ccc1c23 (centres unmarked) [Compound 153],55
13,COCCCN1C(=O)c2cccc3c(NC(=O)C4CCCN(S(=O)(=O)c5ccc6c(c5)OCCO6)C4)ccc1c23 (centres unmarked) [Compound 49],51
14,CS(=O)(=O)N1CCC(CCN2C(=O)c3cccc4c(NC(=O)C5CCCCN5S(=O)(=O)c5ccco5)ccc2c34)CC1 (centres unmarked) [Compound 139],98
15,COc1ccc(CCN2C(=O)c3cccc4c(NC(=O)[C@H]5CC[C@H](NS(=O)(=O)c6cccs6)CC5)ccc2c34)cc1 [Compound 25],61
16,COCCCN1C(=O)c2cccc3c(NC(=O)C4CCCN(S(=O)(=O)c5sc6ccc(Cl)cc6c5C)C4)ccc1c23 (centres unmarked) [Compound 48],58
17,CS(=O)(=O)N1CCC(CCN2C(=O)c3cccc4c(NC(=O)C5CCCCN5S(=O)(=O)c5ccc6c(c5)OCCO6)ccc2c34)CC1 (centres unmarked) [Compound 134],62
18,COCCCN1C(=O)c2cccc3c(NC(=O)C4CCCCN4S(=O)(=O)c4ccc(-c5ccccc5)s4)ccc1c23 (centres unmarked) [Compound 159],84
19,COCCCN1C(=O)c2cccc3c(NC(=O)C4CCCN(S(=O)(=O)c5c(C)noc5C)C4)ccc1c23 (centres unmarked) [Compound 35],56
20,COc1ccc(CCN2C(=O)c3cccc4c(NC(=O)C5CCC(NS(=O)(=O)c6cccs6)CC5)ccc2c34)cc1 (centres unmarked) [Compound 22],78
21,COCCCN1C(=O)c2cccc3c(NC(=O)C4CCCN(S(=O)(=O)c5ccc(F)cc5)C4)ccc1c23 (centres unmarked) [Compound 161],88
22,COCCCN1C(=O)c2cccc3c(NC(=O)C4CCCN(S(=O)(=O)c5ccc6c(c5)OC(F)(F)O6)C4)ccc1c23 (centres unmarked) [Compound 149],59
23,CS(=O)(=O)N1CCC(CCN2C(=O)c3cccc4c(NC(=O)C5CCCN(S(=O)(=O)c6ccco6)C5)ccc2c34)CC1 (centres unmarked) [Compound 136],80

row,SMILES,Inhibition(%)
1,CS(=O)(=O)N1CCC(CCN2C(=O)c3cccc4c(NC(=O)C5CCCCN5S(=O)(=O)c5ccc6c(c5)CCO6)ccc2c34)CC1 (centres unmarked) [Compound 133],59
2,COCCCN1C(=O)c2cccc3c(NC(=O)C4CCCCN4S(=O)(=O)c4ccco4)ccc1c23 (centres unmarked) [Compound 160],53
3,COCCCN1C(=O)c2cccc3c(NC(=O)C4CCCN(S(=O)(=O)c5ccc(-c6ccccn6)s5)C4)ccc1c23 (centres unmarked) [Compound 119],68
4,COCCCN1C(=O)c2cccc3c(NC(=O)C4CCCN(S(=O)(=O)c5cc(Cl)sc5Cl)C4)ccc1c23 (centres unmarked) [Compound 71],91
5,COCCCN1C(=O)c2cccc3c(NC(=O)C4CCCN(S(=O)(=O)c5ccc(-c6ccccc6)cc5)C4)ccc1c23 (centres unmarked) [Compound 151],57
6,COCCCN1C(=O)c2cccc3c(NC(=O)C4CCCN(S(=O)(=O)c5c(C)n[nH]c5C)C4)ccc1c23 (centres unmarked) [Compound 36],54
7,COCCCN1C(=O)c2cccc3c(NC(=O)C4CCCCN4S(=O)(=O)c4ccc(N)cc4)ccc1c23 (centres unmarked) [Compound 145],53
8,O=C(Nc1ccc2c3c(cccc13)C(=O)N2CCS(=O)(=O)c1ccccc1)C1CCCN(S(=O)(=O)c2ccc3c(c2)CCO3)C1 (centres unmarked) [Compound 155],66
9,COCCCN1C(=O)c2cccc3c(NC(=O)C4CCCCN4S(=O)(=O)c4ccc(-c5ccccc5)cc4)ccc1c23 (centres unmarked) [Compound 152],77
10,COCCCN1C(=O)c2cccc3c(NC(=O)C4CCCN(S(=O)(=O)c5ccc6c7c(cccc57)C(=O)N6)C4)ccc1c23 (centres unmarked) [Compound 55],50
11,COCCCN1C(=O)c2cccc3c(NC(=O)C4CCCCN4S(=O)(=O)c4ccccc4)ccc1c23 (centres unmarked) [Compound 138],79
12,COc1ccc(CCN2C(=O)c3cccc4c(NC(=O)C5CCCN(S(=O)(=O)c6cccs6)C5)ccc2c34)cc1 (centres unmarked) [Compound 24],61
13,COCCCN1C(=O)c2cccc3c(NC(=O)C4CCCN(S(=O)(=O)c5ccc(OCCN(C)C)c(C)c5)C4)ccc1c23 (centres unmarked) [Compound 123],54
14,COCCCN1C(=O)c2cccc3c(NC(=O)C4CCCN(S(=O)(=O)c5csc6ccccc56)C4)ccc1c23 (centres unmarked) [Compound 76],87
15,COCCCN1C(=O)c2cccc3c(NC(=O)C4CCCN(S(=O)(=O)c5c(C)c(C)c6c(c5C)CC(C)(C)O6)C4)ccc1c23 (centres unmarked) [Compound 50],63
16,O=C(Nc1ccc2c3c(cccc13)C(=O)N2CCS(=O)(=O)c1ccccc1)C1CCCCN1S(=O)(=O)c1ccc2c(c1)CCO2 (centres unmarked) [Compound 156],64
17,COCCCN1C(=O)c2cccc3c(NC(=O)C4CCCN(S(=O)(=O)c5cccs5)C4)ccc1c23 (centres unmarked) [Compound 28],81
18,COCCCN1C(=O)c2cccc3c(NC(=O)C4CCCN(S(=O)(=O)c5ccccc5)C4)ccc1c23 (centres unmarked) [Compound 137],87
19,COCCCN1C(=O)c2cccc3c(NC(=O)C4CCCCN4S(=O)(=O)c4cccc(F)c4)ccc1c23 (centres unmarked) [Compound 162],74
20,CS(=O)(=O)N1CCC(CCN2C(=O)c3cccc4c(NC(=O)C5CCCN(S(=O)(=O)c6cccs6)C5)ccc2c34)CC1 (centres unmarked) [Compound 131],78
21,COCCCN1C(=O)c2cccc3c(NC(=O)C4CCCN(S(=O)(=O)c5ccc(-c6ccccc6)s5)C4)ccc1c23 (centres unmarked) [Compound 158],61
22,O=C(Nc1ccc2c3c(cccc13)C(=O)N2CCc1c[nH]c2ccccc12)C1CCCCN1S(=O)(=O)c1cccs1 (centres unmarked) [Compound 13],50
